Measured values published in US8822517B2, “Arylosulfonamides for the treatment of CNS diseases” (Adamed SP. Z O.O., priority 2010, dated 2014).

What was measured:
[1] = molecular target: serotoninergic 5-HT2A receptor (Homo sapiens, UniProt P28223); assay: Binding assay 5-HT2A (h), [3H]ketanserin, HEK-293 cells; parameters: expressed in transfected cells; host or cells: HEK-293 cells; conditions: read-out: 5-HT2A
In short: (§1)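 Scintillation counting detects receptor-bound radioligand. Compound tested at 1×10^−6 M.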

[2] = molecular target: T1, serotonine transporter (SERT) receptor (Homo sapiens, UniProt P31645); assay: Binding assay SERT (h), [3H]imipramine, CHO cells; conditions: read-out: SERT [%]
T1 construct: expressed in transfected cells; host or cells: CHO cells
In short: as §1

[3] = molecular target: serotoninergic 5-HT6 receptor (Homo sapiens, UniProt P50406); assay: Binding assay 5-HT6 (h), [3H]LSD, CHO cells; parameters: expressed in transfected cells; host or cells: CHO cells; conditions: read-out: 5-HT6
In short: as §1

[4] = molecular target: serotoninergic 5-HT7 receptor (Homo sapiens, UniProt P34969); assay: Binding assay 5-HT7 (h), [3H]LSD, CHO cells; parameters: expressed in transfected cells; host or cells: CHO cells; conditions: read-out: 5-HT7
In short: as §1

dopaminergic D2 receptor = dopaminergic D2 receptor (Homo sapiens, UniProt P14416); assay: Binding assay D2S (h), [3H]methyl-spiperone, HEK-293 cells; parameters: expressed in transfected cells; host or cells: HEK-293 cells; conditions: read-out: D2 [%]
In short: as §1

dopaminergic D3 receptor = dopaminergic D3 receptor (Homo sapiens, UniProt P35462); assay: Binding assay D3 (h), [3H]methyl-spiperone, CHO cells; parameters: expressed in transfected cells; host or cells: CHO cells; conditions: read-out: D3 [%]
In short: as §1

[5] = molecular target: T2, serotoninergic 5-HT1A receptor (Homo sapiens, UniProt P08908); assay: Binding assay 5-HT1A (h), [3H]8-OH-DPAT, HEK-293 cells; parameters: expressed in transfected cells; host or cells: HEK-293 cells; conditions: read-out: 5-HT1A
T2 sequence (P08908 1-422): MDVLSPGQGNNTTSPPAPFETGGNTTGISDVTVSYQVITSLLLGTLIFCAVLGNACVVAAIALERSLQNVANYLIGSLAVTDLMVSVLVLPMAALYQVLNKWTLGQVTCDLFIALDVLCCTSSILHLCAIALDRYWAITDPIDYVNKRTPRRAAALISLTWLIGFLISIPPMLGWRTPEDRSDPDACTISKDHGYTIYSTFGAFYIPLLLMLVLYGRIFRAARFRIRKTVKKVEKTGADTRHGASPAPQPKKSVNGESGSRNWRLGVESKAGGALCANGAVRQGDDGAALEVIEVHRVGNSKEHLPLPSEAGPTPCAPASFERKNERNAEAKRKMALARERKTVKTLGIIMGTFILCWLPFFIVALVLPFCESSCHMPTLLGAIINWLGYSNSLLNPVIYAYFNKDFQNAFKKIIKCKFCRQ
In short: as §1

adrenergic α1 receptor = assay: Binding assay α1 (non-selective), [3H]prazosin, rat cerebral cortex; conditions: percent inhibition of control specific binding; compounds tested at 1×10^−6 M
In short: as §1

serotoninergic 5-HT7 receptor, sequence (P34969 whole entry): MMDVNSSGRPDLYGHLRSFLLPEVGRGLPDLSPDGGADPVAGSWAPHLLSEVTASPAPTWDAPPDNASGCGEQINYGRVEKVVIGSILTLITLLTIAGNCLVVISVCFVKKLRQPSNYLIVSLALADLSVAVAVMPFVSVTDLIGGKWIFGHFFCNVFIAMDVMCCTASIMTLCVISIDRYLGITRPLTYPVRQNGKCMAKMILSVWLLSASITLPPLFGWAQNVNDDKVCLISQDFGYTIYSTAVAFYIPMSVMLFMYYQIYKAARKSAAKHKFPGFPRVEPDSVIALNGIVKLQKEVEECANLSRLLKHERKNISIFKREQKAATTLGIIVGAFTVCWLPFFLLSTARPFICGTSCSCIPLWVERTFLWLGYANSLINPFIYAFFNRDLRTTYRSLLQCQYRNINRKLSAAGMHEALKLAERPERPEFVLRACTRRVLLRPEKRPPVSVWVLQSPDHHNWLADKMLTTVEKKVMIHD
dopaminergic D3 receptor, sequence (P35462 whole entry): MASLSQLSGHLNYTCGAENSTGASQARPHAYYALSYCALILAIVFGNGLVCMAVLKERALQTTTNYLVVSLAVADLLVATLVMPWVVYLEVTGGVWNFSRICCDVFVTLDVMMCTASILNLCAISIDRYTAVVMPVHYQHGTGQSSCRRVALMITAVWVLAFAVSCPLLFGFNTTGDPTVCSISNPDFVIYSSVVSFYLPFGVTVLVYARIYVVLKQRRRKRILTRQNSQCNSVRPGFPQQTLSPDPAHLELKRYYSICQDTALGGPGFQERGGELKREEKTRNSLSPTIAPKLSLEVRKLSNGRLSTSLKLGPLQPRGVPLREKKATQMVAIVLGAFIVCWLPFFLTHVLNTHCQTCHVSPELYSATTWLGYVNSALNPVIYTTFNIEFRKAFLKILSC
serotoninergic 5-HT6 receptor, sequence (P50406 whole entry): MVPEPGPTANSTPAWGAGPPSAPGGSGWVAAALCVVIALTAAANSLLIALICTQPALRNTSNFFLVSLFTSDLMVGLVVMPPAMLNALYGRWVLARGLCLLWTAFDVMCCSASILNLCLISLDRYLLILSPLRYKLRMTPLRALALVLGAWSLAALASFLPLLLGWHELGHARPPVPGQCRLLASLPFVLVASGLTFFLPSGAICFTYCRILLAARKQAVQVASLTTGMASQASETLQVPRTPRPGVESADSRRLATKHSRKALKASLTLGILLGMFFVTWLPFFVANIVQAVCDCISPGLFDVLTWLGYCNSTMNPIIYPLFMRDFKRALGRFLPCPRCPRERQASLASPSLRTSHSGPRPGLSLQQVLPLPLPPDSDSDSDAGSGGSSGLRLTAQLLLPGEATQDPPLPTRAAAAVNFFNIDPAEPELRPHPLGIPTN
serotoninergic 5-HT2A receptor, sequence (P28223 whole entry): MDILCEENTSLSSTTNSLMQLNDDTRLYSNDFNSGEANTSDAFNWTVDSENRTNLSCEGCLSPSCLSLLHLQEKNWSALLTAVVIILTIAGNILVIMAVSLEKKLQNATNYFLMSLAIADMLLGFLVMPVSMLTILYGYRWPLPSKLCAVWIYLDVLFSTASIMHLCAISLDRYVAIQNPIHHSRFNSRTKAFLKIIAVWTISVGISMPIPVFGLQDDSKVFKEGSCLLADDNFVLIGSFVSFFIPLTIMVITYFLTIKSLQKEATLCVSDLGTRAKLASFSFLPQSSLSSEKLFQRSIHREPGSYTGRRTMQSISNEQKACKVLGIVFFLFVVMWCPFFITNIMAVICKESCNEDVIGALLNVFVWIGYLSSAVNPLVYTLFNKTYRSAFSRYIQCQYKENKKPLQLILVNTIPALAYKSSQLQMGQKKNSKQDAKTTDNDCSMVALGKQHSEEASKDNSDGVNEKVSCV
dopaminergic D2 receptor, sequence (P14416 1-414 isoform P14416-2): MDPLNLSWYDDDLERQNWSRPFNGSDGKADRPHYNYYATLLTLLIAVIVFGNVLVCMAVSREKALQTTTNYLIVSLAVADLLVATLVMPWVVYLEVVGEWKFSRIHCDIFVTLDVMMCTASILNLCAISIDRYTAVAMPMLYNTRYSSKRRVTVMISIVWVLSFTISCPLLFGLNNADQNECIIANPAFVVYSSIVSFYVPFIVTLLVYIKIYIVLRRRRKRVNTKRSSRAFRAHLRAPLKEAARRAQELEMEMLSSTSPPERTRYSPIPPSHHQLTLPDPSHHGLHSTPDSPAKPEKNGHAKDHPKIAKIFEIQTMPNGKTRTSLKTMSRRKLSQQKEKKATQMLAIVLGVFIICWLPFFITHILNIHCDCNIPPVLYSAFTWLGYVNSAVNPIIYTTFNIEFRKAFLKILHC
T1 sequence (P31645 whole entry): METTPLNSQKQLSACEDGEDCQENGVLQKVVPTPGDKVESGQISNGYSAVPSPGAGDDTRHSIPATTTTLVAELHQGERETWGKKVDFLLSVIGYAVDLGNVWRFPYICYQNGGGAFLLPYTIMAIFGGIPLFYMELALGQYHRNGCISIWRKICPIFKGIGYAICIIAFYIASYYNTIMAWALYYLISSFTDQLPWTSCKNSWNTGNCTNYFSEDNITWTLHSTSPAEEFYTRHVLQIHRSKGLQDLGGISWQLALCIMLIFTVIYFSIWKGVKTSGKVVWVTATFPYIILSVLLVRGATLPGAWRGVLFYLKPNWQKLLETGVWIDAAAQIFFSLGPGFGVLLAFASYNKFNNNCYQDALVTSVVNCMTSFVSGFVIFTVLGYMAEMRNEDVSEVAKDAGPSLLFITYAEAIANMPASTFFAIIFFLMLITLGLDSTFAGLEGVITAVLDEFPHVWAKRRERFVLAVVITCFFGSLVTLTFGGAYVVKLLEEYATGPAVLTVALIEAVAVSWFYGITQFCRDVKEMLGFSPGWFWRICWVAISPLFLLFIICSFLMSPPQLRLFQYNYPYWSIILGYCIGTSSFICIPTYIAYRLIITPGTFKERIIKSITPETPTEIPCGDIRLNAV

| Structure (SMILES) | inhibition at 1 µM [1] | inhibition at 1 µM [2] | inhibition at 1 µM [3] | inhibition at 1 µM [4] | inhibition at 1 µM (dopaminergic D2 receptor) | inhibition at 1 µM (dopaminergic D3 receptor) | inhibition at 1 µM [5] | α1 [%] (adrenergic α1 receptor) |
| --- | --- | --- | --- | --- | --- | --- | --- | --- |
| O=S(=O)(NCCCCN1CCC(c2noc3cc(F)ccc23)CC1)c1cnc2ccccn12 [Compound 322, N-[4-[4-(6-Fluoro-1,2-benzoxazol-3-yl)piperidin-1-yl]butyl]imidazo[1,2-a]pyridine-3-sulphonamide] | 94% | 16% | 62% | 95% | 96% | 93% | 43% | 103% |
| O=S(=O)(NCCCCN1CCC(c2noc3cc(F)ccc23)CC1)c1c[nH]c2ncccc12 [Compound 323, N-[4-[4-(6-Fluoro-1,2-benzoxazol-3-yl)piperidin-1-yl]butyl]-1H-pyrrolo[2,3-b]pyridine-3-sulphonamide] | 96% | 41% | 92% | 93% | 105% | 96% | 45% | 103% |
| O=C1Cc2cc(S(=O)(=O)NCCCCN3CCC(c4noc5cc(F)ccc45)CC3)ccc2N1 [Compound 324, N-[4-[4-(6-Fluoro-1,2-benzoxazol-3-yl)piperidin-1-yl]butyl]-2-oxo-indoline-5-sulphonamide] | 104% | 37% | 78% | 78% | 105% | 103% | 56% | 103% |
| O=S(=O)(NCCCN1CCC(c2noc3cc(F)ccc23)CC1)c1ccc(F)cc1 [Compound 326, 4-Fluoro-N-[3-[4-(6-fluoro-1,2-benzoxazol-3-yl)piperidin-1-yl]propyl]benzenesulphonamide] | 96% | 19% | 94% | 94% | 109% | 99% | 59% | 101% |
| O=S(=O)(NCCCN1CCC(c2noc3cc(F)ccc23)CC1)c1ccc(F)c(F)c1 [Compound 327, 3,4-Difluoro-N-[3-[4-(6-fluoro-1,2-benzoxazol-3-yl)piperidin-1-yl]propyl]benzenesulphonamide] | 91% | -1% | 99% | 86% | 89% | 97% | 67% | 109% |
| O=S(=O)(NCCCN1CCC(c2noc3cc(F)ccc23)CC1)c1ccc(Cl)c(Cl)c1 [Compound 329, 3,4-Dichloro-N-[3-[4-(6-fluoro-1,2-benzoxazol-3-yl)piperidin-1-yl]propyl]benzenesulphonamide] | 91% | -2% | 97% | 95% | 109% | 99% | 69% | 102% |
| COc1cccc(S(=O)(=O)NCCCN2CCC(c3noc4cc(F)ccc34)CC2)c1 [Compound 332, N-[3-[4-(6-Fluoro-1,2-benzoxazol-3-yl)piperidin-1-yl]propyl]-3-methoxybenzenesulphonamide] | 97% | 18% | 95% | 64% | 83% | 96% | 71% | 107% |
| CC(C)(C)c1ccc(S(=O)(=O)NCCCN2CCC(c3noc4cc(F)ccc34)CC2)cc1 [Compound 333, 4-tert-Butyl-N-[3-[4-(6-fluoro-1,2-benzoxazol-3-yl)piperidin-1-yl]propyl]benzenesulphonamide] | 99% | 5% | 93% | 92% | 92% | 89% | 42% | 106% |
| O=S(=O)(NCCCN1CCC(c2noc3cc(F)ccc23)CC1)c1ccc(C(F)(F)F)cc1 [Compound 334, N-[3-[4-(6-Fluoro-1,2-benzoxazol-3-yl)piperidin-1-yl]propyl]-4-(trifluoromethyl)-benzenesulphonamide] | 90% | 30% | 98% | 85% | 75% | 96% | 86% | 105% |
| O=S(=O)(NCCCN1CCC(c2noc3cc(F)ccc23)CC1)c1cccc(C(F)(F)F)c1 [Compound 335, N-[3-[4-(6-Fluoro-1,2-benzoxazol-3-yl)piperidin-1-yl]propyl]-3-(trifluoromethyl)-benzenesulphonamide] | 97% | -25% | 93% | 88% | 105% | 93% | 54% | 101% |
| O=S(=O)(NCCCN1CCC(c2noc3cc(F)ccc23)CC1)c1ccc(OC(F)(F)F)cc1 [Compound 336, N-[3-[4-(6-Fluoro-1,2-benzoxazol-3-yl)piperidin-1-yl]propyl]-4-(trifluoromethoxy)-benzenesulphonamide] | 100% | 41% | 92% | 92% | 97% | 96% | 61% | 107% |
| N#Cc1ccc(S(=O)(=O)NCCCN2CCC(c3noc4cc(F)ccc34)CC2)cc1 [Compound 337, 4-Cyano-N-[3-[4-(6-fluoro-1,2-benzoxazol-3-yl)piperidin-1-yl]propyl]benzenesulphonamide] | 102% | 35% | 76% | 87% | 59% | 79% | 41% | 93% |
| O=S(=O)(NCCCN1CCC(c2noc3cc(F)ccc23)CC1)c1cccs1 [Compound 339, N-[3-[4-(6-Fluoro-1,2-benzoxazol-3-yl)piperidin-1-yl]propyl]thiophene-2-sulphonamide] | 82% | 3% | 89% | 89% | 96% | 100% | 76% | 108% |
| O=S(=O)(NCCCN1CCC(c2noc3cc(F)ccc23)CC1)c1ccsc1 [Compound 340, N-[3-[4-(6-Fluoro-1,2-benzoxazol-3-yl)piperidin-1-yl]propyl]thiophene-3-sulphonamide] | 104% | 9% | 72% | 90% | 101% | 101% | 45% | 110% |
| Cc1cc(S(=O)(=O)NCCCN2CCC(c3noc4cc(F)ccc34)CC2)c(C)s1 [Compound 342, N-[3-[4-(6-Fluoro-1,2-benzoxazol-3-yl)piperidin-1-yl]propyl]-2,5-dimethyl-thiophene-3-sulphonamide] | 106% | 26% | 100% | 96% | 106% | 99% | 74% | 103% |
